According to US12570657B2, “Mesylate salts of heterocyclic cytokinins, compositions containing these derivatives and use thereof” (UNIVERZITA PALACKEHO V OLOMOUCI, priority 2020, dated 2026):
Structures can show the parent of a compound that is named as a salt.

Columns and labels:
[1] = system: K562 (chronic myeloid leukemia); assay: In vitro cytotoxicity, Calcein AM assay, K-562; type: cell-based; settings: 3-day Calcein-AM assay
Description: (§1) Because toxic compounds adversely affect cell metabolic processes, many standard cytotoxicity assays are based on measuring the rate of metabolism of various artificial substrates. The resulting product is then quantified, for example, by spectrometry. Assays can be easily modified for use in 96-well plates, A microtiter assay based on the quantification of Calcein AM metabolism was used to evaluate the cytotoxicity of cytokinins, for example meta-topolin, ortho-topolin, kinetin, BAP or its mesylate salts, but also a number of other cytokinin mesylate derivatives according to the invention. The test is widely used in drug screening programs and in chemosensitivity testing. In living cells, Calcein AM is enzymatically hydrolyzed and the accumulation of the resulting calcein is manifested by green fluorescence. […] These cells were maintained in standard DMEM or RPMI medium (Sigma, MO, USA) supplemented with heat-inactivated fetal bovine serum (10%) with 2 mM L-glutamine and penicillin-streptomycin (1%) under standard cell culture conditions (37° C., 5% CO2 in a humid environment) and subcultured two or three times a week using a standard trypsinization procedure. Approximately 10,000 cells in 80 μl of medium were seeded in a 96-well microtiter plate. After 12 hours of incubation, the compounds to be tested were added in 20 μl aliquots. Control cultures were treated with DMSO alone. […] After 72 hours of incubation, Calcein AM solution (Molecular Probes) was added to a final concentration of 1 μg/ml and the cells were incubated for another hour.
(§2) Cytoxicity of compounds was tested on panel of cell lines of different histogenetic and species origin.

[2] = system: MCF-7 (breast adenocarcinoma); assay: In vitro cytotoxicity, Calcein AM assay, MCF7; type: cell-based; settings: 3-day Calcein-AM assay
Description: as §1, §2

[3] = system: CEM (T-lymphoblastic leukemia); assay: In vitro cytotoxicity, Calcein AM assay, CEM; type: cell-based; settings: 3-day Calcein-AM assay
Description: as §1, §2

[4] = system: winter wheat leaf segments; assay: Senescence bioassay: retention of chlorophyll in excised winter wheat leaf tips; type: in vivo, Triticum aestivum cv. Hereward; settings: for activity (%) [10^−4 mol · l^−1 BAP = 100%]: chlorophyll retention at concentration with highest activity, 10^−4 M BAP = 100%; for concentration with highest activity: chlorophyll retention, excised wheat leaf tips, 96 h dark
Procedure: Seeds of winter wheat, Triticum aestivum cv. Hereward, were washed under running water for 24 hours and then sown on vermiculite soaked with Knop's solution. They were placed in a growth chamber at 25° C. with a 16/8 h light/dark period at 50 μmol·m^−2·s^−1. After 7 days, the first leaf was fully developed and the second leaf had started to grow. A tip section of the first leaf, approximately 35 mm long, was removed from 5 seedlings and trimmed slightly to a combined weight of 100 mg. The basal ends of the five leaf tips were placed in the wells of a microtiter polystyrene plate containing 150 μl of each tested compound solution. The entire plate was inserted into a plastic box lined with paper tissues soaked in distilled water to prevent leaf sections from drying out. After 96 h incubation in the dark at 25° C., the leaves were removed and chlorophyll extracted by heating at 80° C. for 10 min in 5 ml of 80% ethanol (v/v). The sample volume was then restored to 5 ml by the addition of 80% ethanol (v/v). The absorbance of the extract was recorded at 665 nm. In addition, chlorophyll extracts from fresh leaves and leaf tips incubated in deionised water were measured. […] Relative activity of the compound at this concentration was calculated (Tab. 3). The activity obtained for 10^−4 M 6-benzylaminopurine (BAP) was postulated as 100%. The values shown are means of five replicates and the whole experiment was repeated twice. The tested cytokinin bases were dissolved in dimethylsulfoxide (DMSO) and the solution brought up to 10^−3 M with distilled water. Cytokinin mesylate salts which are more water-soluble (BAP mesylate, meta-topolin mesylate and kinetin mesylate) could be directly dissolved to form a 10^−3 M solution in distilled water.

[5] = system: cytokinin-dependent tobacco callus; assay: Tobacco callus biotest (stimulation of plant cell division); type: cell-based, Nicotiana tabacum L. cv. Wisconsin 38; settings: for activity (%) [10^−5 mol · l^−1 BAP = 100%]: callus growth at concentration with highest activity, 10^−5 M BAP = 100%; for concentration with highest activity: tobacco callus fresh weight increase, four weeks
Procedure: Stimulation effect of the cytokinin mesylates was tested in tobacco callus biotest using cytokinin dependent tobacco callus. Cytokinin-dependent tobacco callus Nicotiana tabacum L. cv. […] Subcultivation was carried out every three weeks. Fourteen days before the bioassay, the callus tissue was transferred to the media without BAP. Biological activity was determined from the increase in fresh callus weight after four weeks of cultivation. Five replicates were prepared for each cytokinin concentration and the entire test was repeated twice. […] Relative activity of the compound at this concentration was calculated (Tab. 15). The activity obtained for 10^−5 M 6-benzylaminopurine (BAP) was postulated as 100%. The cytokinin bases to be tested were dissolved in dimethylsulfoxide (DMSO) and the solution brought up to 10^−3 M with distilled water. The mesylate salts were dissolved directly in distilled water.

[6] = system: HOS (human osteosarcoma); assay: In vitro cytotoxicity, Calcein AM assay, HOS; type: cell-based; settings: 3-day Calcein-AM assay
Description: as §1, §2

[7] = system: HL-60 (promyelocytic, leukemia); assay: In vitro cytotoxicity, Calcein AM assay, HL60; type: cell-based; settings: 3-day Calcein-AM assay
Description: as §1, §2

[8] = system: Spring barley (variety Francin); assay: Field trial: grain yield and productive tillers of spring barley after foliar spray; type: in vivo; settings: 5 uMol
Procedure: Spring barley (variety Francin) was treated in 2019 at the locality in Olomouc, sprayed with substances—marked BAP (benzylaminopurine), meta-topolin mesylate and BAP mesylate. The seed was 3.5 million germinating seeds, the experiment was established in 5 randomized replicates for each variant, the control was an untreated variant. The experiment was performed according to the GEP (Good Experimental Practice) methodology, the size of individual plots was 10 m^2. The application of the substances was carried out at a rate of 300 l/ha, in the growth phase BBCH 31-33 (beginning of peeling).

[9] = application BBCH 31-33, untreated control = 100

## CC(CO)CCNc1ncnc2[nH]cnc12.CS(=O)(=O)O (racemic) [DHZ mesylate, (RS)-4-((9H-Purin Ylamino)-2-Methylbutan-1-ol) Methanesulphonate]
[1]
  IC50: > 167 µM
[2]
  IC50: > 167 µM
[3]
  IC50: > 167 µM
[4]
  activity (%) [10^−4 mol · l^−1 BAP = 100%]: 82%
  concentration with highest activity: 10^−4 mol · l^−1
[5]
  activity (%) [10^−5 mol · l^−1 BAP = 100%]: 78%
  concentration with highest activity: 10^−6 mol · l^−1

## CC(CO)CCNc1ncnc2nc[nH]c12 (racemic) [Dihydrozeatin (DHZ), dihydrozeatin]
[6]; Homo sapiens, 72 h
  IC50: > 167 µM
[1]; Homo sapiens, K562, 72 h
  IC50: > 167 µM
[2]; Homo sapiens, MCF7, 72 h
  IC50: > 167 µM
[3]; 72 h
  IC50: > 167 µM
[7]; Homo sapiens, HL-60, 72 h
  IC50: > 167 µM
[4]
  activity (%) [10^−4 mol · l^−1 BAP = 100%]: 81%
[5]
  activity (%) [10^−5 mol · l^−1 BAP = 100%]: 78%

## CS(=O)(=O)O.Fc1ccc(CNc2ncnc3nc[nH]c23)c(F)c1 [2.4diFBAP mesylate]
[4]
  activity (%) [10^−4 mol · l^−1 BAP = 100%]: 141%
  concentration with highest activity: 10^−5 mol · l^−1

## CS(=O)(=O)O.Clc1ccccc1CNc1ncnc2nc[nH]c12 [2ClBAP mesylate, 6-(2-chlorobenzylamino)purine mesylate]
[6]; mesylate
  IC50: 100 µM
[1]; mesylate
  IC50: 90.4 µM
[2]; mesylate
  IC50: 128 µM
[3]; mesylate
  IC50: 112 µM
[4]
  activity (%) [10^−4 mol · l^−1 BAP = 100%]: 122%
[5]
  activity (%) [10^−5 mol · l^−1 BAP = 100%]: 97%

## CS(=O)(=O)O.Fc1ccccc1CNc1ncnc2nc[nH]c12 [2FBAP mesylate, 6-(2-fluorobenzylamino)purine mesylate]
[1]; mesylate
  IC50: 70.7 µM
[3]; mesylate
  IC50: 99.5 µM
[7]; Homo sapiens, HL-60, 72 h
  IC50: 126 µM
[4]
  activity (%) [10^−4 mol · l^−1 BAP = 100%]: 175%
[5]
  activity (%) [10^−5 mol · l^−1 BAP = 100%]: 110%

## Fc1ccc(CNc2ncnc3nc[nH]c23)c(F)c1 [2MBAP mesylate]
[4]
  activity (%) [10^−4 mol · l^−1 BAP = 100%]: 157%
  concentration with highest activity: 10^−4 mol · l^−1
[5]
  activity (%) [10^−5 mol · l^−1 BAP = 100%]: 121%
  concentration with highest activity: 10^−6 mol · l^−1

## COc1ccccc1CNc1ncnc2nc[nH]c12.CS(=O)(=O)O [2MeOBAP mesylate, 6-(2-methoxybenzylamino)purine mesylate]
[1]; mesylate
  IC50: 117 µM
[2]; mesylate
  IC50: > 167 µM
[3]; mesylate
  IC50: 98.2 µM
[4]
  activity (%) [10^−4 mol · l^−1 BAP = 100%]: 271%
[5]
  activity (%) [10^−5 mol · l^−1 BAP = 100%]: 82%

## COc1ccccc1CNc1ncnc2nc[nH]c12 [2MeOBAP, 6-(2-methoxybenzylamino)purine]
[6]; Homo sapiens, 72 h
  IC50: > 167 µM
[1]; Homo sapiens, K562, 72 h
  IC50: 116 µM
[2]; Homo sapiens, MCF7, 72 h
  IC50: 153 µM
[3]; 72 h
  IC50: 63.4 µM
[7]; Homo sapiens, HL-60, 72 h
  IC50: > 167 µM
[5]
  activity (%) [10^−5 mol · l^−1 BAP = 100%]: 79%

## COc1cccc(CNc2ncnc3nc[nH]c23)c1O [2OH3MeOBAP mesylate, 6-(2-hydroxy-3-methoxybenzylamino)purine mesylate]
[2]; mesylate
  IC50: 32.1 µM
[3]; mesylate
  IC50: 51 µM
[7]; mesylate
  IC50: 67.8 µM

## COc1cccc(CNc2ncnc3nc[nH]c23)c1O [2OH3MeOBAP, 6-(2-hydroxy-3-methoxybenzylamino)purine]
[1]; Homo sapiens, K562, 72 h
  IC50: > 167 µM
[2]; Homo sapiens, MCF7, 72 h
  IC50: 26.6 µM
[3]; 72 h
  IC50: 41.6 µM
[7]; Homo sapiens, HL-60, 72 h
  IC50: 64.3 µM

## CS(=O)(=O)O.Fc1cc(F)cc(CNc2ncnc3nc[nH]c23)c1 [3.5diFBAP mesylate]
[4]
  activity (%) [10^−4 mol · l^−1 BAP = 100%]: 168%
  concentration with highest activity: 10^−5 mol · l^−1

## CS(=O)(=O)O.Clc1cccc(CNc2ncnc3nc[nH]c23)c1 [3ClBAP mesylate, 6-(3-chlorobenzylamino)purine mesylate]
[4]
  activity (%) [10^−4 mol · l^−1 BAP = 100%]: 82%
[5]
  activity (%) [10^−5 mol · l^−1 BAP = 100%]: 101%

## CS(=O)(=O)O.Fc1cccc(CNc2ncnc3nc[nH]c23)c1 [3FBAP mesylate, 6-(3-fluorobenzylamino)purine mesylate]
[1]; mesylate
  IC50: 136 µM
[2]; mesylate
  IC50: > 167 µM
[4]
  activity (%) [10^−4 mol · l^−1 BAP = 100%]: 210%
[5]
  activity (%) [10^−5 mol · l^−1 BAP = 100%]: 137%

## Clc1ccc(CNc2ncnc3nc[nH]c23)cc1 [4ClBAP]
[6]
  IC50: > 167 µM
[1]
  IC50: > 167 µM
[2]
  IC50: > 167 µM
[3]
  IC50: > 167 µM
[7]
  IC50: > 167 µM

## CS(=O)(=O)O.Fc1ccc(CNc2ncnc3nc[nH]c23)cc1 [4FBAP mesylate, 6-(4-fluorobenzylamino)purine mesylate]
[4]
  activity (%) [10^−4 mol · l^−1 BAP = 100%]: 98%
[5]
  activity (%) [10^−5 mol · l^−1 BAP = 100%]: 126%

## COc1ccc(CNc2ncnc3nc[nH]c23)cc1 [4MeOBAP mesylate, 6-(4-methoxybenzylamino)purine mesylate]
[1]; mesylate
  IC50: 118 µM

## Fc1ccc(CNc2ncnc3nc[nH]c23)c(F)c1 [6-(2.4-difluorobenzylamino)purine (2.4diFBAP)]
[4]
  activity (%) [10^−4 mol · l^−1 BAP = 100%]: 139%
  concentration with highest activity: 10^−5 mol · l^−1

## Fc1cc(F)cc(CNc2ncnc3nc[nH]c23)c1 [6-(3.5-difluorobenzylamino)purine]
[4]
  activity (%) [10^−4 mol · l^−1 BAP = 100%]: 156%
  concentration with highest activity: 10^−5 mol · l^−1

## C/C(=C/CNc1ncnc2nc[nH]c12)CO [Cis-zeatin (cZ), Cis-zeatin]
[6]
  IC50: > 167 µM
[2]
  IC50: > 167 µM
[3]
  IC50: > 167 µM
[7]
  IC50: > 167 µM

## C/C(=C/CNc1ncnc2[nH]cnc12)CO [cZ mesylate, (Z)-4-((9H-Purin Ylamino)-2-Methylbut-2-En-1-ol) Methanesulphonate]
[2]
  IC50: > 167 µM
[3]
  IC50: > 167 µM

## CS(=O)(=O)O.Oc1cccc(CNc2ncnc3[nH]cnc23)c1 [m-topolin mesylate]
[8]; application BBCH 31-33
  Length of plants: 83.1 cm
  Medium tillers (number): 1.25
  Number of spikes per square meter: 721.6
  SUM of tillers: 5.5
  Strong tillers (number): 2.45
  Weak tillers (number): 1.8
[8]; application BBCH 31-33, spring barley
  Grain yield (t/ha) at 14% humidity: 8.01 t/ha
[8]; [9]
  Grain yield, % compared to control: 108.03%
  Length of plants, % compared to control: 100.36%
  Medium tillers, % compared to control: 59.52%
  Number of spikes per square meter, % compared to control: 106.62%
  SUM of tillers, % compared to control: 95.65%
  Strong tillers, % compared to control: 136.11%
  Weak tillers, % compared to control: 97.3%
